# Laboratory results taken from patent publication US20100010214A1, “LYOPHILIZED PREPARATION OF 1-METHYLCARBAPENEM” (DAIICHI SANKYO COMPANY, LIMITED, priority 2006, published 2010).
# Assay: Solubility of compound (I) in water at predetermined pH
# Format: physicochemical
# Conditions: water for injection, ice-cold, pH adjusted with HCl/NaOH; solubility increased with decrease in pH
# Method: Method for Measuring Solubility of Compound (I):
# Compound (I) (in an amount so that concentration of compound (I) in the aqueous solution becomes 300 mg/g) is weighed in a beaker. 15 mL of water for injection cooled to 5° C. is added, and the solution is stirred using a stirrer under ice-cold conditions for 30 minutes. While stirring, adjustment to the predetermined pH is conducted by dropwise addition of 1N hydrochloric acid or 1N sodium hydroxide aqueous solution, and the pH is maintained. After stirring is completed, a filtration filter (for example, Ekicrodisc 0.45 μm HT-Tuffryn, Gelman Science Japan, Ltd.) is used for filtration, and the amount of compound (I) in the filtrate is measured by the quantitative HPLC method which is similar to Test Example 1 described later, and thus solubility of compound (I) is obtained.
smiles,measurement,value
"C[C@@H](O)[C@H]1C(=O)N2C(C(=O)O)=C(S[C@H]3C[C@@H](C(=O)N4CC[C@H](NC(=O)CNC(=N)N)C4)N(C)C3)[C@H](C)[C@H]12 [Compound (I), (1R,5S,6S)-6-[(1R)-1-hydroxyethyl]-1-methyl-2-[(2S,4S)-2-[(3S)-3-(2-guanidinoacetylamino)pyrrolidin-1-ylcarbonyl]-1-methylpyrrolidin-4-ylthio]-1-carbapen-2-em-3-carboxylic acid]",Solubility in water,solubility sufficient for the production of the preparation at pH 7 or lower
